Reference: patent publication US10106553B2, “Substituted benzothiophenyl derivatives as GPR40 agonists for the treatment of type II diabetes” (Janssen Pharmaceutica NV, priority 2016, dated 2018)

Assays:
Male SD rats = experiment: Oral Glucose Tolerance Test; type: in vivo, rat; conditions: 10 mg/kg po 30-40 min prior to oGTT (glucose 2 g/kg po), blood glucose AUC t=0 to t=120 min
Protocol: Male SD rats (200-250 g) were housed 2 per cage in a temperature-controlled room with a 12-hour light/dark cycle. They were allowed ad libitum access to water and fed with normal rodent chow. The night before the oral glucose tolerance test (oGTT), the rats were transferred to clean cages and fasted overnight. On the morning of the oGTT, the rats were weighed and randomized into groups based on fasted blood glucose and body weight. Rats were dosed with vehicle (0.5% methocel) or compounds (10 mg/kg, po) thirty to forty min prior to the oGTT (glucose, 2 g/kg, po). Blood was collected from the tail vein at 0, 10, 30, 60 and 120 minutes after glucose challenge to measure blood glucose; plasma was used to determine insulin levels. The area under the curve for blood glucose excursion was calculated from t=0 to t=120 minutes. Percent lowering of glucose was calculated from the AUC data with respect to the vehicle-treated group.

human GPR40 = human GPR40 (Homo sapiens (Human), UniProt O14842); experiment: GPR40 Calcium Flux Assay; type: cell-based; conditions: transfected HEK293 cells stably expressing human GPR40; Ca2+ mobilization; mean data; read-out: hGPR40 Ca^2+ Assay EC50;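 note: calcium flux followed with the Fluo-8 fluorescent dye, intensity read each second over 8 min as compounds were added to the cells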
Chain of human GPR40 (O14842 whole entry): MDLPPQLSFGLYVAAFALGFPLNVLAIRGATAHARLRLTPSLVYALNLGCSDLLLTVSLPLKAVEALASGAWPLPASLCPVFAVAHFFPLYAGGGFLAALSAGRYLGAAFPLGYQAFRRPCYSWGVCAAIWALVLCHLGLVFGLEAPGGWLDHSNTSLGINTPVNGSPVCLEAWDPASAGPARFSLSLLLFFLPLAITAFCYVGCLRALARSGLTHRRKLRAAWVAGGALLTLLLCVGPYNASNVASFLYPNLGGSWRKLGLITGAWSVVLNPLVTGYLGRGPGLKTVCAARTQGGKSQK

SMILES	Percent Lowering of Glucose (AUC compound vs. AUC Vehicle) (Male SD rats)	EC50 (human GPR40)
CC#C[C@@H](Cc1nnn[nH]1)c1ccc(OCc2ccc3scc(-c4ccccc4C)c3c2)cc1 [Cpd 1, (2S)-5-(2-(4-((3-(2-Methylphenyl)benzo[b]thiophen-5-yl)methoxy)phenyl)pent-3-yn-1-yl)-1H-tetrazole]	81%	–
CC#C[C@@H](Cc1nnn[nH]1)c1ccc(OCc2ccc3scc(-c4ccc(OCC5(C)CS(=O)(=O)C5)cc4C)c3c2)cc1 [Cpd 12, (2S)-3-((4-(5-((4-(1-(1H-Tetrazol-5-yl)pent-3-yn-2-yl)phenoxy)methyl)benzo[b]thiophen-3-yl)-3-methylphenoxy)methyl)-3-methylthietane 1,1-dioxide]	101%	–
CC#C[C@@H](Cc1nnn[nH]1)c1ccc(OCc2ccc3scc(-c4ccc(OCCCS(C)(=O)=O)cc4C)c3c2)cc1 [Cpd 16, (2S)-5-(2-(4-((3-(2-Methyl-4-(3-(methylsulfonyl)propoxy)phenyl)benzo[b]thiophen-5-yl)methoxy)phenyl)pent-3-yn-1-yl)-1H-tetrazole]	105%	–
CC#C[C@@H](Cc1nnn[nH]1)c1ccc(OCc2ccc3scc(-c4ccc(OCCC(C)(C)O)cc4C)c3c2)nc1 [Cpd 43, (2R)-4-(4-(5-(((5-(1-(1H-Tetrazol-5-yl)pent-3-yn-2-yl)pyridin-2-yl)oxy)methyl)-benzo[b]thiophen-3-yl)-3-methylphenoxy)-2-methylbutan-2-ol]	–	0.13 µM
CC#C[C@@H](Cc1nnn[nH]1)c1ccc(OCc2ccc3sc(F)c(-c4ccc(OCCOC)cc4C)c3c2)cc1 [Cpd 44, (2S)-5-(2-(4-((2-Fluoro-3-(4-(2-methoxyethoxy)-2-methylphenyl)benzo[b]thiophen-5-yl)methoxy)phenyl)pent-3-yn-1-yl)-1H-tetrazole]	91%	–
CC#C[C@@H](Cc1nnn[nH]1)c1ccc(OCc2ccc3sc(C(F)(F)F)c(-c4ccc(OCCOC)cc4C)c3c2)cc1 [Cpd 47, 5-((2S)-2-(4-((3-(4-(2-Methoxyethoxy)-2-methylphenyl)-2-(trifluoromethyl)benzo[b]thiophen-5-yl)methoxy)phenyl)pent-3-yn-1-yl)-1H-tetrazole]	91%	–
CC#C[C@@H](Cc1nnn[nH]1)c1ccc(OCc2cnc3scc(-c4ccccc4C)c3c2)cc1 [Cpd 49, (2S)-5-((4-(1-(1H-Tetrazol-5-yl)pent-3-yn-2-yl)phenoxy)methyl)-3-(2-methylphenyl)thieno[2,3-b]pyridine]	–	0.01 µM
CC#C[C@@H](Cc1nnn[nH]1)c1ccc(OCc2cnc3scc(-c4ccc(OC)cc4C)c3c2)cc1 [Cpd 50, (2S)-5-((4-(1-(1H-Tetrazol-5-yl)pent-3-yn-2-yl)phenoxy)methyl)-3-(4-methoxy-2-methylphenyl)thieno[2,3-b]pyridine]	–	0.052 µM
CC#C[C@@H](Cc1nnn[nH]1)c1ccc(OCc2cc3c(-c4ccccc4C)csc3cn2)cc1 [Cpd 51, (2S)-5-((4-(1-(1H-Tetrazol-5-yl)pent-3-yn-2-yl)phenoxy)methyl)-3-(2-methylphenyl)thieno[2,3-c]pyridine]	–	0.003 µM
CC#C[C@@H](Cc1nnn[nH]1)c1ccc(OCc2cc3c(-c4ccc(OC)cc4C)csc3cn2)cc1 [Cpd 52, (2S)-5-((4-(1-(1H-Tetrazol-5-yl)pent-3-yn-2-yl)phenoxy)methyl)-3-(4-methoxy-2-methylphenyl)thieno[2,3-c]pyridine]	–	0.001 µM
CC#C[C@@H](Cc1nnn[nH]1)c1ccc(OCc2ccc3scc(-c4ccccc4C)c3n2)cc1 [Cpd 53, (2S)-5-((4-(1-(1H-Tetrazol-5-yl)pent-3-yn-2-yl)phenoxy)methyl)-3-(2-methylphenyl)thieno[3,2-b]pyridine]	–	0.17 µM
CC#C[C@@H](Cc1nnn[nH]1)c1ccc(OCc2ccc3scc(-c4ccc(OC)cc4C)c3n2)cc1 [Cpd 54, (2S)-5-((4-(1-(1H-Tetrazol-5-yl)pent-3-yn-2-yl)phenoxy)methyl)-3-(4-methoxy-2-methylphenyl)thieno[3,2-b]pyridine]	–	0.18 µM
CC#C[C@@H](Cc1nnn[nH]1)c1ccc(OCc2ccc3scc(C4CCCC4)c3c2)cc1 [Cpd 56, (2S)-5-(2-(4-((3-Cyclopentylbenzo[b]thiophen-5-yl)methoxy)phenyl)pent-3-yn-1-yl)-1H-tetrazole]	–	0.054 µM
CC#C[C@@H](Cc1nnn[nH]1)c1ccc(OCc2ccc3scc(C(C)C)c3c2)cc1 [Cpd 58, (2S)-5-(2-(4-((3-Isopropylbenzo[b]thiophen-5-yl)methoxy)phenyl)pent-3-yn-1-yl)-1H-tetrazole]	–	0.1 µM
CC#C[C@@H](Cc1nnn[nH]1)c1ccc(OCc2ccc3scc(CCC)c3c2)cc1 [Cpd 59, (2S)-5-(2-(4-((3-Propylbenzo[b]thiophen-5-yl)methoxy)phenyl)pent-3-yn-1-yl)-1H-tetrazole]	–	0.13 µM
CC#C[C@@H](Cc1nnn[nH]1)c1ccc(OCc2ccc3sccc3c2)cc1 [Cpd 60, (2S)-5-(2-(4-(Benzo[b]thiophen-5-ylmethoxy)phenyl)pent-3-yn-1-yl)-1H-tetrazole]	–	0.11 µM
CC#C[C@@H](Cc1nnn[nH]1)c1ccc(OCc2cc(C)c3scc(CCCC)c3c2)cc1 [Cpd 64, (2S)-5-(2-(4-((3-Butyl-7-methylbenzo[b]thiophen-5-yl)methoxy)phenyl)pent-3-yn-1-yl)-1H-tetrazole]	–	0.33 µM
CC#C[C@@H](Cc1nnn[nH]1)c1ccc(OCc2cc(C)c3scc(C4CCCC4)c3c2)cc1 [Cpd 65, (2S)-5-(2-(4-((3-Cyclopentyl-7-methylbenzo[b]thiophen-5-yl)methoxy)phenyl)pent-3-yn-1-yl)-1H-tetrazole]	–	0.44 µM
CC#C[C@@H](Cc1nnn[nH]1)c1ccc(OCc2cc(C)c3scc(C4CCCCC4)c3c2)cc1 [Cpd 66, (2S)-5-(2-(4-((3-Cyclohexyl-7-methylbenzo[b]thiophen-5-yl)methoxy)phenyl)pent-3-yn-1-yl)-1H-tetrazole]	–	1.12 µM
